Test results reported in the NIST ThermoML archive (doi:10.1016/j.fluid.2009.11.030).

Test: excess molar enthalpy (molar enthalpy of mixing); xn = mol fraction of the nth substance listed
Settings: 101.3 kPa, Liquid, Isothermal microcalorimeter

CCOC(=O)CC(=O)OCC [diethyl 1,3-propanedioate] + CCCCO
excess molar enthalpy [kJ/mol]
Settings	288.15 K	298.15 K	313.15 K	328.15 K	338.15 K	348.15 K
x1 = 0.0498	0.515	0.556	0.61	0.642	0.651	0.634
x1 = 0.1085	1	1.06	1.19	–	1.29	1.29
x1 = 0.1482	1.246	1.324	1.481	1.538	1.612	1.655
x1 = 0.1991	1.514	1.614	1.828	1.936	1.975	1.976
x1 = 0.2499	1.715	1.834	2.07	2.196	2.23	2.267
x1 = 0.3003	1.881	2.02	2.276	2.41	2.456	2.461
x1 = 0.3501	1.989	2.166	2.422	2.564	2.602	2.616
x1 = 0.3988	2.078	2.25	2.513	2.642	2.69	2.712
x1 = 0.4501	2.132	2.304	2.564	2.688	2.736	2.724
x1 = 0.5	2.148	2.325	2.554	2.684	2.725	2.714
x1 = 0.548	2.134	2.306	2.522	2.645	2.669	2.645
x1 = 0.5984	2.094	2.233	2.435	2.53	2.561	2.56
x1 = 0.6512	1.984	2.128	2.299	2.387	2.406	2.382
x1 = 0.6965	1.882	1.993	2.134	2.199	2.223	2.192
x1 = 0.749	1.689	1.784	1.924	1.936	1.935	1.912
x1 = 0.7985	1.471	1.541	1.63	1.661	1.658	1.641
x1 = 0.8502	1.18	1.234	1.301	1.3	1.323	1.28
x1 = 0.8981	0.851	0.892	0.944	0.902	0.97	0.938
x1 = 0.948	0.458	0.477	0.516	0.466	0.533	0.511

CCOC(=O)CC(=O)OCC [diethyl 1,3-propanedioate] + CCOC(C)=O
excess molar enthalpy [kJ/mol]
Settings	288.19 K	298.15 K	313.15 K	328.15 K	338.15 K	348.15 K
x1 = 0.0504	-0.001	-0.002	-0.004	-0.006	-0.007	-0.01
x1 = 0.1008	-0.001	-0.003	-0.006	-0.01	-0.014	-0.017
x1 = 0.148	-0.002	-0.004	-0.008	-0.014	-0.018	-0.023
x1 = 0.2007	-0.002	-0.005	-0.01	-0.017	-0.022	-0.027
x1 = 0.2496	-0.002	-0.006	-0.011	-0.019	-0.025	-0.031
x1 = 0.2974	-0.002	-0.006	-0.012	-0.02	-0.026	-0.033
x1 = 0.3475	-0.002	-0.006	-0.012	-0.021	-0.028	-0.034
x1 = 0.4	-0.002	-0.006	-0.012	-0.021	-0.028	-0.035
x1 = 0.447	-0.002	-0.006	-0.012	-0.021	-0.028	-0.034
x1 = 0.5003	-0.002	-0.005	-0.012	-0.02	-0.027	-0.033
x1 = 0.5474	-0.002	-0.005	-0.011	-0.019	-0.026	-0.032
x1 = 0.601	-0.001	-0.004	-0.01	-0.018	-0.024	-0.03
x1 = 0.6476	-0.001	-0.004	-0.009	-0.017	-0.022	-0.027
x1 = 0.7009	-0.001	-0.003	-0.008	-0.015	-0.019	-0.024
x1 = 0.7514	0	-0.003	-0.007	-0.013	-0.017	-0.021
x1 = 0.7986	0	-0.002	-0.006	-0.01	-0.014	-0.017
x1 = 0.8476	0	-0.001	-0.004	-0.008	-0.01	-0.013
x1 = 0.8985	0	0	-0.003	-0.006	-0.007	-0.009
x1 = 0.9513	0.001	0.001	-0.001	-0.003	-0.003	-0.004
